In patent publication US20130023491A1, “BETA-CELL REPLICATION PROMOTING COMPOUNDS AND METHODS OF THEIR USE” (President and Fellows of Harvard College, priority 2009, published 2013):
Entries after “also recorded” stand apart in the source; their conditions may differ. Where two headings read alike, the source gives them in different places.

How the values were obtained:
[1] = tested on: β-cells (dispersed rat islet cells); experiment: primary islet β-cell replication assay (PDX-1/ki-67 co-staining, automated imaging); assay type: cell-based; conditions: for EC50: Rattus norvegicus; for increase of β-cell replication: 24 h, 5-IT 2 μM, GLP-1 and Ex-4 20 nM and 4 nM, normalized to DMSO
Experimental: Rat islets were isolated as previously described in Gotoh M, Maki T, Kiyoizumi T, Satomi S, Monaco A P: An improved method for isolation of mouse pancreatic islets. Transplantation 40:437-438, 1985, contents of which are herein incorporated by reference in their entirety. Isolated islets were cultured overnight in a tissue culture incubator. The following morning, islets were trypsinized into cellular clusters of 1-3 cells, re-suspended in islet media (Mediatech 99-786-CV; 10% FBS serum (Valley Biomedial BS3033); 8.3 mM Glucose (Sigma G7528); 1× Penicillin/Streptomycin (Invitrogen 15070-063); 1× Glutamax (Invitrogen 35050-079)) and plated into the wells of a 96-well plate (Sigma CLS3904) that had been coated with 804G (a rat bladder carcinoma cell line) conditioned media. The cellular plating density was 60 k cells/well and greater than 95% viability was confirmed at the time of plating. […] For screening, compounds were tested at 1 uM concentration in duplicate. After 24-hours of compound treatment, cells were fixed with fresh 4% PFA (Electron Microscopy Services 15710) for 20 minutes and washed with PBS (VWR 45000-446). Antigen retrieval was performed by heating the cells to 90 degrees Celsius in 0.1 mM EDTA (Ambion AM9260G) in PBS. Cells were then washed and permeabalized with PBS/0.3% Triton X-100 (J.T.Baker X198-07) for 15 minutes. Immunocytochemical staining was then performed as follows. Antigen blocking was performed with 5% normal donkey serum (Jackson ImmunoResearch 017-000-121) in PBS for an hour. Staining was performed by overnight incubation with primary antibody at 4 degrees Celsius. For the primary screen, PDX-1 antibody (R&D AF2419) was used to reveal beta-cells and ki-67 antibody (BD Bioscience 556003) to visualize proliferating cells. Without wishing to be bound by theory, the failure of prior beta-cell replication screens is primarily a consequence of using a cytoplasmic marker (Insulin) as the β-cell identifier. The use of a cytoplasmic marker prevents accurate attribution of nuclear replication to a specific cell identity i.e., in dense culture it is impossible to attribute a cytoplasm to a specific nucleus given the proximity to multiple nuclei. Additional Immunohistochemistry antibodies included Phosphohistone 3 (Millipore 06-570), Insulin (Dako A0564), Glucagon (Millipore 4031-01F) and Vimentin (Millipore ab5733). For western blotting anti-bodies included ADK (Abcam ab38010, ab64825) and RAN (BD Bioscience 610340) as a loading control.
Once compound-treated islet cells were stained, β-cell replication was assessed via automated image acquisition and analysis using a Cellomics ArrayScanVTI. The acquisition thresholds/parameters were established such that the computer-based calls of replication events were consistent with human-based calls. The parameters used were directed at the identification of (1) PDX-1+ cells and (2) ki-67 positive staining within the PDX-1 positive area. The algorithm was a three step process. First the nuclear area was predicted by the software based upon the expected PDX-1 staining pattern. Second PDX-1 positive cells (selected objects) were counted based upon the average staining intensity within the predicted nuclear area (Note: total signal intensity was essentially equal in quality but was not typically used). Third, the number of PDX-1 positive cells (selected objects) that simultaneously were Ki-67 positive was determined by determining the average fluorescence intensity of ki-67 staining within the predicted nuclear area (again, total intensity was also occasionally used with equal efficacy). The specific thresholds (fluorescence intensities) varied from experiment to experiment. In general, the basal replication rate was set at roughly 1% i.e., the algorithm was varied until 1% of DMSO treated PDX+ cells were reported to be double positive for PDX-1 and ki67. […]

[2] = compared to 5-IT; Zheng et al. 2001; cited from earlier work
[3] = tested on: islet β-cells; experiment: in vivo β-cell replication (BRDU incorporation); parameters: species or system mouse; conditions: mice
Description: 24-hours post treatment, animals were sacrificed and the pancreas was fixed, sectioned and stained for PDX-1 and BRDU (Amaersham RPN202). Every fourth section was included in analysis and a minimum of 2000 PDX-1^+ per animal were counted.
(§1) A minority of these cells were not exocrine cells. […] Dividing cells were BRDU^+ (Amaersham RPN202).

[4] = tested on: murine β-cells; experiment: murine islet β-cell replication (PDX-1/ki-67); assay type: cell-based, mouse; conditions: FIG. 13b top
Experimental: (§2) Rat and mouse islets were isolated as previously described. (M. Gotoh, et al., Transplantation 43, 725-730 (1987)) All animal work was approved and carried out in accordance with our institutional animal care and use committee. Porcine islets were provided by VitaCyte (Indianapolis, Id.). Islets were incubated (37° C., 5% CO2) overnight in islet media (Mediatech 99-786-CV; 10% FBS serum (Valley Biomedial BS3033); 8.3 mM Glucose (Sigma G7528); 1× Penicillin/Streptomycin (Invitrogen 15070-063); 1× Glutamax (Invitrogen 35050-079)). The following morning, islets were trypsinized into cellular clusters of 1-3 cells, re-suspended in islet media and plated into the wells of a 96-well plate (Sigma CLS3904) that had been coated with 804G (a rat bladder carcinoma cell line) conditioned media. The cellular plating density was 60 k cells/well and greater than 95% viability was confirmed at the time of plating. The islet cells were allowed 48-hours to adhere at which time the media was changed (as above, except 2% serum, 5 mM glucose) and the cells were compound treated. For screening, compounds were tested at 1 μM and 10 μM concentrations in duplicate on a single occasion. After 24-hours of compound treatment, cells were fixed with fresh 4% PFA. Antigen retrieval was performed by heating the cells to 90 degrees Celsius in 0.1 M EDTA in distilled water. […]

[5] = tested on: exocrine cells; experiment: in vivo exocrine cell replication (BRDU incorporation); parameters: species or system mouse; conditions: mice, 21 mg/kg, 24 h
Description: as §1

[6] = tested on: porcine β-cells; experiment: porcine islet β-cell replication (PDX-1/ki-67); assay type: cell-based; conditions: FIG. 13b bottom
Experimental: as §2

## Nc1ncnc2c1c(I)cn2[C@H]1CC[C@@H](CO)O1 [7-Iodo-2,3-dideoxy-7-deazadenosine, 7-deaza-7-iodo-2′,3′-dideoxyadenosine]
[1]; FIG. 17b, 7-Iodo-2,3-dideoxy-7-deazadenosine 20 μM, 10 μM, Aristeromycin 6 μM, 1 μM
  β-cell replication after treatment with additional ADK-Is: increased

## Nc1ncnc2nc(-c3ccc(N4CCOCC4)nc3)cc(-c3cccc(Br)c3)c12 [ABT-702, 5-(3-bromophenyl)-7-(6-morpholinopyridin-3-yl)pyrido[2,3-d]pyrimidin-4-amine]
[2]
  half-life: longer half-life compared to 5-IT
[3]; separate cohort, FIG. 20
  in vivo β-cell replication rate, β-cells identified by insulin immunostaining: increases
[3]; single intraperitoneal injection, 21 mg/kg, 24 h
  increase in BRDU incorporation by β-cells in vivo (PDX-1 identified): 2 fold
[1]; A10 0.019-10 uM, B8 0.23-30 uM
  % of Ki-67 positive β-cells (PDX-1 and Ki-67 positive cells), dose curve: increased in a dose dependent manner
[1]; FIG. 13c dose-response curves, read-out: EC50, β-cell proliferation in rat islet cultures
  EC50: 7 µM
[1]; dose curves FIG. 2a (A10) and FIG. 3 (B8), Ki-67 positive β-cells, read-out: EC50 for β-cell proliferation
  EC50: 9.1 µM
[4]
  induction of β-cell replication, murine islet cells: induction of β-cell replication similar to that observed for rat islet cells
[5]
  in vivo replication rate of exocrine cells: did not increase
[6]
  induction of β-cell replication, porcine islet cells: induction of β-cell replication similar to that observed for rat islet cells

## NC(=O)c1ncn([C@@H]2O[C@H](CO)[C@@H](O)[C@H]2O)c1N [AICAR, 5-aminoimidazole-4-carboxamide ribonucleoside]
[1]; AICAR 3.3 μM
  % β-cell replication: increase

## c1cc(-c2cnn3cc(-c4ccc(OCCN5CCCCC5)cc4)cnc23)ccn1 [Cpd C]
[1]; Cpd C 10 μM
  beta-cell replication with A10 relative to the uninhibited controls: decrease

## Nc1ncnc2c1ncn2[C@@H]1O[C@H](CO)[C@@H](O)[C@H]1O [adenosine]
[1]; rat islets, adenosine 0.05-1000 uM
  effect on % PDX-1 and Ki-67 expressing cells (β-cell proliferation): little effect; also recorded: no effect

## Exendin-4 [Ex-4]
[1]
  increase of β-cell replication: ~1.5 fold

## Glucagon-like peptide-1 [GLP-1]
[1]
  increase of β-cell replication: ~1.5 fold
